{
  "source": "paper PMC6271338",
  "about": "“Synthesis and Cytotoxic Evaluation of Alkoxylated Chalcones” (Molecules, 2014)",
  "key": {"HeLa cells": {"test_system": "HeLa cells", "experiment": "In vitro anti-proliferative SRB assay, HeLa", "format": "cell-based, human", "conditions": "for IC50: Homo sapiens, HeLa, increasing concentrations up to 30 μM, mean ± SD of at least three independent experiments; for SI (CC50 HMLE/IC50 Hela) / SI (CC50 L02/IC50 Hela): selectivity index; for SI (CC50 HMLE/IC50 Hela): HMLE vs HeLa; for SI (CC50 L02/IC50 Hela): L02 vs HeLa"}, "[1]": {"experiment": "Cytotoxicity (SRB) against non-tumoral L02 cells", "format": "cell-based, human", "conditions": "human, L02 cells (non-tumoral human liver cell line); increasing concentrations up to 100 μM; mean ± SD of at least three independent experiments; read-out: Normal Human Cell Lines, CC50, L02"}, "MCF-7 cells": {"test_system": "MCF-7 cells", "experiment": "In vitro anti-proliferative SRB assay, MCF-7", "format": "cell-based, human", "conditions": "for IC50: Homo sapiens, MCF7, increasing concentrations up to 30 μM, mean ± SD of at least three independent experiments; for SI (CC50 HMLE/IC50 MCF7) / SI (CC50 L02/IC50 MCF7): selectivity index; for SI (CC50 HMLE/IC50 MCF7): HMLE vs MCF7; for SI (CC50 L02/IC50 MCF7): L02 vs MCF7"}, "A549 cells": {"test_system": "A549 cells", "experiment": "In vitro anti-proliferative SRB assay, A549", "format": "cell-based, human", "conditions": "for IC50: Homo sapiens, A549, increasing concentrations up to 30 μM, mean ± SD of at least three independent experiments; for SI (CC50 HMLE/IC50 A549) / SI (CC50 L02/IC50 A549): selectivity index; for SI (CC50 HMLE/IC50 A549): HMLE vs A549; for SI (CC50 L02/IC50 A549): L02 vs A549"}, "SW1990 cells": {"test_system": "SW1990 cells", "experiment": "In vitro anti-proliferative SRB assay, SW1990", "format": "cell-based, human", "conditions": "for IC50: Homo sapiens, SW1990, increasing concentrations up to 30 μM, mean ± SD of at least three independent experiments; for SI (CC50 L02/IC50 SW1990): L02 vs SW1990"}, "[2]": {"test_system": "human mammary epithelial cell (HMLE)", "experiment": "Cytotoxicity (SRB) against non-tumoral HMLE cells", "format": "cell-based", "conditions": "HMLE versus the five tumoral cell lines"}, "[3]": {"experiment": "Cytotoxicity (SRB) against non-tumoral HMLE cells", "format": "cell-based, human", "conditions": "human, HMLE cells (non-tumoral human mammary epithelial cells); increasing concentrations up to 100 μM; mean ± SD of at least three independent experiments; read-out: Normal Human Cell Lines, CC50, HMLE"}, "HepG2 cells": {"test_system": "HepG2 cells", "experiment": "In vitro anti-proliferative SRB assay, HepG2", "format": "cell-based, human", "conditions": "for IC50: Homo sapiens, HepG2, increasing concentrations up to 30 μM, mean ± SD of at least three independent experiments; for SI (CC50 HMLE/IC50 HepG2) / SI (CC50 L02/IC50 HepG2): selectivity index; for SI (CC50 HMLE/IC50 HepG2): HMLE vs HepG2; for SI (CC50 L02/IC50 HepG2): L02 vs HepG2"}, "[4]": {"test_system": "five human cancer cell lines (HepG2, HeLa, MCF-7, A549 and SW1990)", "experiment": "In vitro anti-proliferative SRB assay, summary statements over the five-line panel", "format": "cell-based", "conditions": "most of their in vitro IC50 values against the five human cancer lines", "procedure": "With a aim of identifying potential anticancer agents with enhanced levels of activity, as well as verifying the conclusions provided above, we took a14 as a starting compound, and then designed and synthesized a series of chalcones b1–42 bearing methoxy groups at the 2' and 6'-positions of the B-ring, whilst varying the substituents on the A-ring. The cytotoxicities of the resulting chalcones were evaluated in vitro against five human cancer cell lines and other two non-tumoral cell lines, including HepG2, HeLa, MCF-7, A549, SW1990, HMLE and L02, and the results are shown in Table 2.\nHepG2 and MCF7 cells were grown in the Eagle’s minimum essential medium with Earle’s balanced salts (MEM-EBSS) medium, HeLa, A549 and L02 cells were grown in Dulbecco’s Modified Eagle Media (DMEM), SW1990 cells were grown in RPMI-1640 medium, and HMLE cell were grown in DMEM/F-12 medium. The media were supplemented with 100 U/mL penicillin, […] streptomycin and 10% fetal bovine serum (FBS), and incubated at 37 °C in a humidified atmosphere containing 5% CO2.\nCells were seeded into 96-well plates (4000 cells/well) and incubated at 37 °C in a humidified 5% CO2 atmosphere. After 24 h, the cells were treated with different concentrations of the compounds for 48 h in triplicate to generate dose-response curves. Cell viability was evaluated using the sulforhodamine B (SRB) assay as previous described. […] Etoposide was used as the positive control."}, "[5]": {"test_system": "L02 (a human liver cell line)", "experiment": "Cytotoxicity (SRB) against non-tumoral L02 cells", "format": "cell-based", "conditions": "L02 versus the five tumoral cell lines"}},
  "data": [
    {"smiles": "COc1cccc(OC)c1/C=C/C(=O)c1ccccc1F", "note": "[b31, (E)-1-(2-Fluorophenyl)-3-(2,6-dimethoxyphenyl)prop-2-en-1-one]", "values": [
      {"measurement": "IC50", "setting": "HeLa cells", "value": "23.3 ± 0.42", "unit": "µM"},
      {"measurement": "SI (CC50 HMLE/IC50 Hela)", "setting": "HeLa cells", "value": ">4.3"},
      {"measurement": "SI (CC50 L02/IC50 Hela)", "setting": "HeLa cells", "value": ">4.3"},
      {"measurement": "CC50 at 48 h", "setting": "[1]", "value": "> 100", "unit": "µM"},
      {"measurement": "IC50", "setting": "MCF-7 cells", "value": "23.5 ± 0.98", "unit": "µM"},
      {"measurement": "SI (CC50 HMLE/IC50 MCF7)", "setting": "MCF-7 cells", "value": ">4.3"},
      {"measurement": "SI (CC50 L02/IC50 MCF7)", "setting": "MCF-7 cells", "value": ">4.3"},
      {"measurement": "IC50", "setting": "A549 cells", "value": "27.4 ± 0.67", "unit": "µM"},
      {"measurement": "SI (CC50 HMLE/IC50 A549)", "setting": "A549 cells", "value": ">3.6"},
      {"measurement": "SI (CC50 L02/IC50 A549)", "setting": "A549 cells", "value": ">3.6"},
      {"measurement": "IC50", "setting": "SW1990 cells", "value": "> 30", "unit": "µM"},
      {"measurement": "SI between the CC50 in HMLE and IC50 in tumoral cells", "setting": "[2]", "value": "2–7 fold"},
      {"measurement": "CC50 at 48 h", "setting": "[3]", "value": "> 100", "unit": "µM"},
      {"measurement": "IC50", "setting": "HepG2 cells", "value": "18 ± 0.88", "unit": "µM"},
      {"measurement": "SI (CC50 HMLE/IC50 HepG2)", "setting": "HepG2 cells", "value": ">5.6"},
      {"measurement": "SI (CC50 L02/IC50 HepG2)", "setting": "HepG2 cells", "value": ">5.6"},
      {"measurement": "melting point", "value": "66.6 to 68.1", "unit": "°C"}
    ]},
    {"smiles": "CCOc1ccccc1C(=O)/C=C/c1c(OC)cccc1OC", "note": "[b8, (E)-1-(2-Ethoxyphenyl)-3-(2,6-dimethoxyphenyl)prop-2-en-1-one]", "values": [
      {"measurement": "IC50", "setting": "[4]", "value": "< 10", "unit": "µM"},
      {"measurement": "IC50", "setting": "HeLa cells", "value": "8.72 ± 0.07", "unit": "µM"},
      {"measurement": "SI (CC50 HMLE/IC50 Hela)", "setting": "HeLa cells", "value": 0.1},
      {"measurement": "SI (CC50 L02/IC50 Hela)", "setting": "HeLa cells", "value": 4.5},
      {"measurement": "SI between the CC50 in L02 and IC50 in tumoral cells", "setting": "[5]", "value": "more than 2 fold"},
      {"measurement": "CC50 at 48 h", "setting": "[1]", "value": "39.6 ± 7.53", "unit": "µM"},
      {"measurement": "IC50", "setting": "MCF-7 cells", "value": "8.56 ± 0.17", "unit": "µM"},
      {"measurement": "SI (CC50 HMLE/IC50 MCF7)", "setting": "MCF-7 cells", "value": 0.1},
      {"measurement": "SI (CC50 L02/IC50 MCF7)", "setting": "MCF-7 cells", "value": 4.6},
      {"measurement": "IC50", "setting": "A549 cells", "value": "7.36 ± 0.37", "unit": "µM"},
      {"measurement": "SI (CC50 HMLE/IC50 A549)", "setting": "A549 cells", "value": 0.1},
      {"measurement": "SI (CC50 L02/IC50 A549)", "setting": "A549 cells", "value": 5.4},
      {"measurement": "IC50", "setting": "SW1990 cells", "value": "8.2 ± 0.12", "unit": "µM"},
      {"measurement": "SI (CC50 HMLE/IC50 SW1990)", "setting": "SW1990 cells; selectivity index, HMLE vs SW1990", "value": 0.1},
      {"measurement": "SI (CC50 L02/IC50 SW1990)", "setting": "SW1990 cells; selectivity index", "value": 4.8},
      {"measurement": "CC50 at 48 h", "setting": "[3]", "value": "0.83 ± 0.21", "unit": "µM"},
      {"measurement": "IC50", "setting": "HepG2 cells", "value": "4.23 ± 0.09", "unit": "µM"},
      {"measurement": "SI (CC50 HMLE/IC50 HepG2)", "setting": "HepG2 cells", "value": 0.2},
      {"measurement": "SI (CC50 L02/IC50 HepG2)", "setting": "HepG2 cells", "value": 9.3},
      {"measurement": "melting point", "value": "48.8 to 50.4", "unit": "°C"}
    ]},
    {"smiles": "COc1cccc(OC)c1/C=C/C(=O)c1ccc(O)cc1O", "note": "[b27, (E)-1-(2,4-Dihydroxyphenyl)-3-(2,6-dimethoxyphenyl)prop-2-en-1-one]", "values": [
      {"measurement": "IC50", "setting": "HeLa cells", "value": "24.84 ± 0.17", "unit": "µM"},
      {"measurement": "SI (CC50 HMLE/IC50 Hela)", "setting": "HeLa cells", "value": ">4.0"},
      {"measurement": "SI (CC50 L02/IC50 Hela)", "setting": "HeLa cells", "value": 1.4},
      {"measurement": "CC50 at 48 h", "setting": "[1]", "value": "35.5 ± 5.72", "unit": "µM"},
      {"measurement": "IC50", "setting": "MCF-7 cells", "value": "23.1 ± 0.82", "unit": "µM"},
      {"measurement": "SI (CC50 HMLE/IC50 MCF7)", "setting": "MCF-7 cells", "value": ">4.3"},
      {"measurement": "SI (CC50 L02/IC50 MCF7)", "setting": "MCF-7 cells", "value": 1.5},
      {"measurement": "IC50", "setting": "A549 cells", "value": "17.3 ± 0.76", "unit": "µM"},
      {"measurement": "SI (CC50 HMLE/IC50 A549)", "setting": "A549 cells", "value": ">5.8"},
      {"measurement": "SI (CC50 L02/IC50 A549)", "setting": "A549 cells", "value": 2.1},
      {"measurement": "IC50", "setting": "SW1990 cells", "value": "> 30", "unit": "µM"},
      {"measurement": "SI (CC50 L02/IC50 SW1990)", "setting": "SW1990 cells; selectivity index", "value": "<1.2"},
      {"measurement": "SI between the CC50 in HMLE and IC50 in tumoral cells", "setting": "[2]", "value": "2–7 fold"},
      {"measurement": "CC50 at 48 h", "setting": "[3]", "value": "> 100", "unit": "µM"},
      {"measurement": "IC50", "setting": "HepG2 cells", "value": "17.4 ± 1.01", "unit": "µM"},
      {"measurement": "SI (CC50 HMLE/IC50 HepG2)", "setting": "HepG2 cells", "value": ">5.8"},
      {"measurement": "SI (CC50 L02/IC50 HepG2)", "setting": "HepG2 cells", "value": 2.0},
      {"measurement": "melting point", "value": "218.7 to 220.2", "unit": "°C"}
    ]}
  ]
}
